Measurements taken from patent publication US10633383B2, “Compounds for the treatment, alleviation or prevention of disorders associated with Tau aggregates” (AC Immune SA, priority 2018, dated 2020).

Legend:
[1] = test system: human neuroblastoma cell line overexpressing the full-length form of human Tau carrying the P301L mutation; test: Reduction of intracellular Tau aggregation (AlphaLISA); format: cell-based; conditions: compound at 5 μM, 24 h, aggregated Tau normalized to total Tau, relative to DMSO-treated cells
Experimental: Reduction of Intracellular Tau Aggregation
A human neuroblastoma cell line overexpressing the full-length form of human Tau carrying the P301L mutation was cultured in complete medium [DMEM-F12 4.5 g/L Glutamax (Invitrogen), 15% FBS (Biochrom), 1% Peni/Strep (Invitrogen) supplemented with 2.5 μg/ml of G418 (Sigma-Aldrich) selection antibiotic]. The day before the experiment 5×10^5 cells/well were plated in a 6 well plate in 3 mL of complete medium. The next day, cells were incubated with DMSO or a compound of the present invention at a 5 μM for additional 24 h at 37° C. After incubation, cells were trypsinized, resuspended in 100 μl of homogenization buffer [25 mM Tris-HCl pH 7.4, 150 mM NaCl, 1 mM EDTA, 1 mM EGTA containing phosphatase inhibitors (30 mM NaF, 0.2 mM Na3VO4, 1 nM Okadaic acid, 1 mM PMSF, 5 mM Na4P2O7) and protease inhibitor cocktail (Complete™, Roche)], and then physically lysed with three rapid cycles of freezing and thawing. Samples were then directly tested in the AlphaLISA assay. Phosphorylated, aggregated, and total Tau were quantified by AlphaLisa using the following antibody pairs: • HT7-Acceptor beads+biotin (BT)-Tau13-Donor beads: Total Tau • HT7-Acceptor beads+biotin (BT)-HT7-Donor beads: Aggregated human Tau
The Tau13 (Abcam) was biotinylated using EZ-Link® NHS-PEO Solid Phase biotinylation kit (Thermo Scientific), while the HT7-biotin was from a commercial source (Thermo Scientific).
For each antibody pairs the concentration of acceptor beads and biotinylated antibodies was optimized. All samples were first tested in a dilution series in PBS in order to identify the linear range and optimal dilution for each sample and assay. For the final protocol, the following reagents were added in a 384-well white OptiPlate (PerkinElmer): • 5 μL of test diluted sample • 20 μL of the mixture biotin-mAb acceptor beads at the following final concentrations: • HT7-BT at 1.25 nM in combination with HT7-Acc beads at 10 μg/ml • Tau13-BT at 5 nM in combination with HT7-Acc beads at 2.5 μg/ml
After incubation of this mixture at room temperature for 1 h, 25 μL of Streptavidin Donor beads (Perkin Elmer) at 25 μg/mL were added in the dark. Plates were analyzed after 30 min incubation using the EnSpire Alpha instrument and EnSpire Workstation version 3.00. Data for aggregated Tau were normalized to total Tau and then expressed as percentage of the DMSO-treated cells.

rTg4510 mice = test: Total human Tau in CSF of rTg4510 mice (AlphaLISA); format: in vivo, mouse; conditions: 30 mg/kg bi-daily by gavage for 1 month, vs vehicle treated rTg4510 mice (FIG. 1)
Text: In Vivo Efficacy of the Compounds of the Present Invention In Vivo Study Design for the Testing of Example 12 and Example 45
Double transgenic rTg4510 mice express the full-length human Tau carrying the P301L mutation (Tau4R0N-P301L) under the control of the tet-inducible CaMKII promoter (Ramsden et al., J. Neurosci., 2005⋅25(46):10637-10647). Single transgenic mice expressing only the tetracycline-controlled transactivator (tTA) were used as genotype controls. The study comprised 4 treatment groups (n=15 female for tTa group and n=11 female mice/group for the treatment) with the following group distribution (see Table 9). […]
Mice were deeply anesthetized by standard injectable anesthesia and transcardially perfused with cold PBS. […] Total human Tau in CSF Tau was quantified using the following antibody pairs: HT7-Acceptor beads+biotin (BT)-Tau13-donor beads. […]
After incubation of this mixture at room temperature for 1 hour, 25 μL of Streptavidin Donor beads (Perkin Elmer) at 25 μg/mL were added in the dark. Plates were analyzed after 30 minute incubation using the EnSpire Alpha instrument and EnSpire Workstation version 3.00. Data were analyzed by 1-way ANOVA followed by post-hoc comparisons and shown statistics refers to differences compared to vehicle treated rTg4510 mice.

SMILES: Fc1ccc2[nH]c3c(c2c1)CN(c1ccc2nc(N4CCOCC4)oc2c1)CC3 [Example 12]
- inhibition at 5 µM [1]: 25 to 50%
- Tau levels in CSF (rTg4510 mice): decreased Tau levels in CSF
